Experiments:
HT-1080 [1] = experiment: Cell cycle arrest in human HT-1080 cells assessed as G1 phase cells at 10 uM incubated for 24 hrs by PI staining based flow cytometric analysis (reference value: 58.1 %); assay type: functional
HT-1080 [2] = experiment: Antiproliferative activity against human HT-1080 cells harboring IDH1 R132C mutant assessed as reduction in cell viability incubated for 72 hrs by MTT assay; assay type: functional

COc1cc(O)c(-c2cc(-c3ccc(O)cc3)nc(N3CCNCC3)n2)cc1CC=C(C)C
Activity (HT-1080 [1]): 45.4%
GC50 (HT-1080 [2]): 1380 nM
